The values below come from US20050051179A1, “Simple apparatus for preparing experimental models of brain neuronal damage and preparation of secondary brain damage model with methods for evaluation of drug efficacy of novel compounds against brain damage and memory-related events” (priority 2003, published 2005).

The subject of test [1] is direct contusion nest (DCN) injury. Put plainly: MRI findings and cerebral blood flow (CBF) velocity after direct contusion nest (DCN). It is filed as in vivo, dog. An excerpt: (§1) Eight healthy 4-year-old male Beagle dogs were anesthetized before a square piece of skull (1.2×1.2 cm^2) was craniectomized. As two different cerebral injuries were involved in the study, a unilateral parietal bone was drilled and the brain surface surgically exposed without removing the dura mater. In two randomized dogs, a self-designed 5-mm spherical DCN with reproducibility was applied to generate concussion (CC in Table 1). In the remaining four dogs, the WD method was employed under the following experimental conditions: a weight of 12-g mass with a drop-distance of 20 cm to generate an impact of 240 cm·g.
(§2) MRI findings were performed with superconductor magnetism of magnetic field intensity 0.5T (Flexart MRT-50GP; Toshiba Medical Co., Ltd.). CBF velocities of DCN (n=2) and drop-weight-inflicted (n=4) dogs (including craniectomized skull-replaced dogs) were measured via MRI using the 3D-phase shift magnetic resonance angiography with presaturation pulse (PAMRA: TE=25, TR=10). Craniectomized skull-chips were replaced and kept in position with adhesive.

The subject of test [2] is pyramidal cells of hippocampal CA1 field. Briefly: Viable pyramidal cell counts per unit area, hippocampal CA1 field, after drop-weight impact. The format is in vivo, rat. As to conditions: rats, 3 mg/kg i.p. before impact. As for the experimental part:
(§3) Male Fisher rats weighing 400-450 g were anesthetized with sodium pentobarbital (Nembutal; Dainippon Pharmaceutical Co., Ltd., Osaka) by i.p. administration (40 mg/kg) before the head was restrained in a stereotaxic apparatus. Weight 20 of 5-gram mass positioned at a drop-distance of 10 cm was dropped onto the brain surface under gravitational force to generate an impact of 50 cm·g, causing a head injury. Follow-up studies of the progress of subsequent events from 1 to 48 hours post-impact were monitored with the MRI approach.
(§4) Immediately after impact, MRI diagnoses were conducted to categorize animals as (i) no injuries, (ii) no subarachinoid hemorrhage and (iii) external wounds and hemorrhages inflicted on brain surface, etc. Animals having such criteria were omitted from subsequent studies. Animals with confirmed cerebral injuries but without these criteria were divided into groups of six each.
Along with MRI findings from 1 to 48 hours post-impact, brain injuries were also evaluated histopathologically using the cardioperfusion method with 200 mL of physiological saline (0.9 w/w %) to first remove blood cells followed by fixation with 50 mL of 0.1 MPBS (pH: 7.4) containing 4% paraformaldehyde (PFA). Brain tissues were then embedded in paraffin and coronal sections of the brain specimens were sectioned before staining with the hematoxylin-eosin (H&E) reagent.
With regard to the therapeutic effects of chemical agents tested, viable pyramidal cell counts per unit area (1 mm^2) of tissues in hippocampal CA1 and CA3 fields were determined to derive the area of tissue damage/injury using image-analysis software (NIH Co., Ltd.; Image Ver. 1.55). As for the extent of tissue damage, slices with the maximum damage area between two groups were compared.

Test [3] concerns SBD derived from experimental head injury. Put plainly: MRI diagnosis of cerebral injuries after drop-weight impact (SBD model). The format is in vivo, rat. The settings on record: rats, 3 mg/kg i.p. before impact of 50 cm·g; 1 hr post-impact. As for the experimental part:
as §3, §4

Test [4] concerns pyramidal cells of hippocampal CA3 field. Put plainly: Viable pyramidal cell counts per unit area, hippocampal CA3 field, after drop-weight impact. It is filed as in vivo, rat. As to conditions: rats, 3 mg/kg i.p. before impact. Here is the method:
as §3
Immediately after impact, MRI diagnoses were conducted to categorize animals as (i) no injuries, (ii) no subarachinoid hemorrhage and (iii) external wounds and hemorrhages inflicted on brain surface, etc. Animals having such criteria were omitted from subsequent studies. […]
Along with MRI findings from 1 to 48 hours post-impact, brain injuries were also evaluated histopathologically using the cardioperfusion method with 200 mL of physiological saline (0.9 w/w %) to first remove blood cells followed by fixation with 50 mL of 0.1 MPBS (pH: 7.4) containing 4% paraformaldehyde (PFA). […]
With regard to the therapeutic effects of chemical agents tested, viable pyramidal cell counts per unit area (1 mm^2) of tissues in hippocampal CA1 and CA3 fields were determined to derive the area of tissue damage/injury using image-analysis software (NIH Co., Ltd.; Image Ver. 1.55). […]

The test system of test [5] is SBD generated with the drop weight apparatus. Briefly: MRI findings and cerebral blood flow (CBF) velocity after drop-weight impact (240 cm·g). It is filed as in vivo, dog. As to conditions: dogs.
Text: as §1, §2

In the case of `C[C@]12N[C@H](Cc3ccccc31)c1ccccc12` [MK-801], the “CBF after the high values registered immediately after impact” value in test [1] (dogs subjected to DCN, drug-treated group (same as non-treated)) was “no subsequent changes thereafter”. The “damage field with time (MRI)” value in test [1] (dogs, DCN group with drug pretreatment) is given as “damage area had expanded”. The “suppression of SBD exacerbation (viable cell counts 48 hr vs 1 hr post-impact)” value in test [2] is reported as “could not completely suppress SBD exacerbation”. The “viable pyramidal cell counts per unit area, CA1 field, decrease compared with the control group” value in test [2] (1 hr post-impact, non-treated 59.2%) came out at 66.4%; in test [2] (48 hr post-impact, non-treated 44.5%) it was 54.8%. Besides, in test [3], the “T2-weighted high-signal and T1-weighted low-signal areas (MRI)” value is given as “expanded”. In addition, the “viable pyramidal cell counts per unit area, CA3 field, decrease (rate)” value in test [4] (1 hr post-impact, non-treated 45.9%) was 63.0%; in test [4] (48 hr post-impact, non-treated 37.6%), 61.2%. The “time-related expansion of damage after impact (MRI)” value in test [5] (drop weight group with drug pretreatment, 240 cm·g) was “not established”. In addition, the “SBD development (CBF peak at 3 hr after impact)” value in test [5] (drop-weight-inflicted, drug-pretreated group) is “effectively suppressed SBD development”.
